According to article PMC3260785 (The Journal of Physical Chemistry. B, 2011):

Target: T1, Formate dehydrogenase (FDH, Candida boidinii) ([Candida] boidinii, UniProt O13437)
T1 sequence (O13437 1-364): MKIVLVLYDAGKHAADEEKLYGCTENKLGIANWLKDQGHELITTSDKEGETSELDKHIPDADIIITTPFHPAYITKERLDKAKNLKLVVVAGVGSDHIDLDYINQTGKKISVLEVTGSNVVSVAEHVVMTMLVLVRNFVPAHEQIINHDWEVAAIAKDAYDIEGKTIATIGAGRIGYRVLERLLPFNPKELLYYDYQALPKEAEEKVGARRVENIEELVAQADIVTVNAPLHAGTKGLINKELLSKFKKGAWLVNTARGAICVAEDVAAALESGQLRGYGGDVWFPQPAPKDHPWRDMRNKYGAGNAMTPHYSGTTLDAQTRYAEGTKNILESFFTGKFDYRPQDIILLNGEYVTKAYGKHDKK
Experiment: isothermal titration calorimetry
Assay type: binding

[N-]=[N+]=NCc1ccc[n+]([C@@H]2O[C@H](COP(=O)(O)OP(=O)(O)OC[C@H]3O[C@@H](n4cnc5c(N)ncnc54)[C@H](O)[C@@H]3O)[C@@H](O)[C@H]2O)c1 [PAAD^+]
Kd: 7 µM
